According to article PMC3901259, “Characterisation of the Metabolites of 1,8-Cineole Transferred into Human Milk: Concentrations and Ratio of Enantiomers” (Metabolites, 2013):

Tests used:
[1] = Determination of the ratios of enantiomers of chiral metabolites in human milk on chiral GC capillaries; format: in vivo; details: for Percentage E1: B-2b, B-2c of the same parent
From the text: The separation of the chiral metabolites of 1,8-cineole was successfully achieved using different β- or γ-cyclodextrin-based stationary phases (Rt-bDEXsa, Rt-bDEXse, Rt-bDEXsm and Rt-yDEXsa) for gas chromatographic analysis. Table S1, in the supplementary material, lists the usable separation phases and the respective retention indices (determined according to van den Dool and Kratz) for each pair of enantiomers. It was therefore decided to use the following capillaries for the analysis of the human milk samples: Rt-bDEXsm for separation of 2,3-dehydro-, α2,3-epoxy-, 2-oxo-, 3-oxo- and 9-hydroxy-1,8-cineole, and Rt-yDEXsa for separation of α2-hydroxy-, α3-hydroxy- and β2-hydroxy-1,8-cineole, under the GC conditions described in the experimental section.
For GC-MS analyses, an Agilent MSD quadrupole system (GC 7890A with MSD 5975C, Agilent Technologies, Waldbronn, Germany) coupled with a CIS 4C (cooled injection system) and an MPS 2 auto-sampler (Gerstel GmbH & Co. KG, Duisburg, Germany) were used. Data collection and analysis were performed with the MSD ChemStation E.02.00.493 (Agilent Technologies, Inc.) software. Quantification experiments were carried out on DB-FFAP and DB-5 capillaries (30 m length, 0.25 mm inner diameter, 0.25 µm film thickness, Agilent J&W GC Columns, USA), and for monitoring of the ratio of enantiomers the chiral capillaries Rt-bDEXsa, Rt-bDEXse, Rt-bDEXsm and Rt-yDEXsa (30 m length, 0.32 mm inner diameter, 0.25 µm film thickness, Restek GmbH, Bad Homburg, Germany) were utilised. Pre-columns of uncoated, deactivated fused silica (0.53 mm inner diameter, 0.5 to 3.5 m length) were used to ensure that no potentially present low-volatile residues could contaminate the analytical capillaries. The temperature programme of the column oven was as follows: 40 °C for 2 min, 4 °C/min up to 170 °C, 40 °C/min up to 230 °C (Rt-DEX capillaries), 240 °C (DB-FFAP) and 250 °C (DB-5), respectively, and hold time at end temperature of 5 to 10 min. As carrier gas, helium was used at a flow rate of 1.3 mL/min (velocity 41.1 cm/s). Injection of 1 or 2 µL was performed by the auto-sampler.
For the separation of the pairs of enantiomers of the chiral metabolites of 1,8-cineole, four different capillaries (Rt-bDEXsa, Rt-bDEXse, Rt-bDEXsm, and Rt-yDEXsa) were evaluated for optimisation of the peak-to-peak resolution of the enantiomers by injecting a mixture of all the metabolites in a dichloromethane solution and by varying the heating rate. Besides the separation of each pair of enantiomers from each other, it was also important to confirm that no other metabolite coeluted with any one of the enantiomers, because the milk samples would most probably contain all metabolites. Moreover, the separation conditions for the mixture of reference substances were also tested on some human milk sample extracts and modified accordingly, where necessary, to avoid coelution with interfering matrix compounds.
For calculation of the ratio of enantiomers (that is, the relative abundance of each enantiomer to the not separated mixture of enantiomers), the peak area of each enantiomer was divided by the sum of the peak areas of both enantiomers and multiplied by 100. With the known concentrations of the chiral metabolites in each milk sample, the absolute concentration of each single enantiomer was also calculated by multiplying the concentration with the respective percentage.

[2] = set-up: method as in doi:10.1002/cplu.201200253; details: urine after 100 mg 1,8-cineole; cited from earlier work
[3] = Quantification of 1,8-cineole metabolites in human milk (SAFE, GC-MS, internal standard and matrix calibration) after oral intake of 100 mg 1,8-cineole; format: in vivo; details: for Absolute concentration in human milk: single determination
From the text: Human milk samples were provided voluntarily by breastfeeding mothers after intake of the non-prescription pharmaceutical Soledum® (Klosterfrau Healthcare Group, Cologne, Germany). Before the beginning of the study, the participants were informed verbally, as well as in written form, about the study procedure and purpose and they were told that withdrawing from the study was possible at any time without giving any reason. All volunteers gave written consent to the analysis of their milk samples and anonymous publication of the resulting data. The Ethical Committee of the Medical Faculty, University Erlangen-Nuremberg, approved the experimental procedures. Each participant was handed a copy of the Soldeum® package instructions and was advised to read it before capsule intake. They were also advised to withdraw from the study if any negative reactions such as medication allergies or interactions with other drugs they were taking were to be expected. Additionally, the volunteers were informed verbally about potential effects of the pharmaceutical preparation on breastfeeding, i.e. the risk of an altered milk flavour and rejection of the milk by the nursling. Accordingly, if this would happen, the mothers were recommended to feed their babies with stored human milk or formula milk products.
The milk donors were between the ages of 29 and 40 years (mean 34 years). During their participation in the study, their breast milk production had to be normal and in excess of their infants' needs, with no breast infections and no overall medical complaints present. Five participants were primiparous, three were multiparous and the breast milk samples were from 19 weeks to 19 months postpartum. For sampling, either electrical or mechanical breast pumps or manual expression techniques were applied, resulting in sample volumes between 10 and 100 mL. The samples were immediately subjected to sample preparation after a maximum storage time of five hours at 7 °C or were stored in a freezer at −20 °C for up to five days.
The participating volunteers were asked to ingest one Soledum® capsule, containing 100 mg 1,8-cineole, and to wait until they themselves or another person began to notice the eucalyptus-like odour on their breath. […] The donors were instructed to keep notes on the dates of capsule intake, first eucalyptus-like odour on their breath and exact sampling time. Unfortunately it was difficult for some mothers to detect the smell on their breath so they expressed the samples after some time without having noticed the smell, or reported having been unsure about the smell. […] Some of the donors repeated the whole experiment and some expressed more than one sample after the capsule intake, resulting in 14 samples in total, from 8 different mothers.
Extracts containing the volatile fraction of the human milk samples were prepared by Solvent Assisted Flavour Evaporation (SAFE) after addition of deuterated 1,8-cineole as internal standard (solution in dichloromethane), followed by 10 min of stirring, then another addition of dichloromethane (50% v/v), and 30 min of stirring. The resulting stable phase was distilled in the SAFE-apparatus at 50 °C and approximately 1x10^−4 mbar. The volatile fraction of the samples was frozen with liquid nitrogen. After thawing, it consisted of two phases, formed by the dichloromethane and by the water out of the milk. The water phase was extracted three times with dichloromethane, and the solvent phases were combined and dried over anhydrous Na2SO4. Finally the sample extracts were concentrated by microdistillation according to Bemelmans at 50 °C to a total volume of 50 to 200 μL.
For GC-MS analyses, an Agilent MSD quadrupole system (GC 7890A with MSD 5975C, Agilent Technologies, Waldbronn, Germany) coupled with a CIS 4C (cooled injection system) and an MPS 2 auto-sampler (Gerstel GmbH & Co. KG, Duisburg, Germany) were used. […]

[4] = set-up: method as in PMID 20425757; details: one volunteer, sage tea, overall intake 1.02 mg 1,8-cineole; cited from earlier work
[5] = sample A-1b (odour yes), oral 100 mg 1,8-cineole, values given with (<x) are approximations
[6] = sample B-1 (odour yes), oral 100 mg 1,8-cineole, values given with (<x) are approximations
[7] = sample B-2a (no odour), oral 100 mg 1,8-cineole
[8] = sample B-2b (odour yes), oral 100 mg 1,8-cineole, values given with (<x) are approximations
[9] = sample B-2c (no odour), oral 100 mg 1,8-cineole
[10] = sample D-1 (no odour), oral 100 mg 1,8-cineole, values given with (<x) are approximations
[11] = sample D-2 (odour yes), oral 100 mg 1,8-cineole, values given with (<x) are approximations
[12] = sample E-2 (odour yes), oral 100 mg 1,8-cineole, values given with (<x) are approximations
[13] = sample G (odour yes), oral 100 mg 1,8-cineole, values given with (<x) are approximations
[14] = sample H (odour yes), oral 100 mg 1,8-cineole, values given with (<x) are approximations

## CC12C=CC(CC1)C(C)(C)O2 (stereo not shown) [2,3-dehydro-1,8-cineole, 2,3-Dehydro-1,8-cineole]
[1]; human milk sample B-2a, excluded from Table 3
  Percentage E1 in single sample (outlier): 100%
[2]
  Presence in human urine: could not be found
[3]; sample A-1a (no odour)
  Estimated maximum level in human milk (concentration calculated with the last calibration point, in parentheses): < 1.26 µg/kg
[3]; sample A-1a (no odour), oral 100 mg 1,8-cineole, values given with (<x) lie beyond calibration range, approximation
  Absolute concentration in human milk: 0.28 µg/kg
[3]; [5]
  Absolute concentration in human milk: 4.07 µg/kg
[3]; [6]
  Absolute concentration in human milk: 13.65 µg/kg
[3]; [7]
  Absolute concentration in human milk: 0.07 µg/kg
[3]; [8]
  Absolute concentration in human milk: 2.80 µg/kg
[3]; [9]
  Absolute concentration in human milk: 0.57 µg/kg
[3]; sample C (no odour)
  Estimated maximum level in human milk (concentration calculated with the last calibration point, in parentheses): < 0.88 µg/kg
[3]; sample C (no odour; very weak odour not caused by 1,8-cineole), oral 100 mg 1,8-cineole, values given with (<x) are approximations
  Absolute concentration in human milk: 0.73 µg/kg
[3]; sample D-1 (no odour)
  Estimated maximum level in human milk (concentration calculated with the last calibration point, in parentheses): < 0.97 µg/kg
[3]; [10]
  Absolute concentration in human milk: 0.45 µg/kg
[3]; [11]
  Absolute concentration in human milk: 5.13 µg/kg
[3]; sample E-1 (no odour)
  Estimated maximum level in human milk (concentration calculated with the last calibration point, in parentheses): < 1.21 µg/kg
[3]; sample E-1 (no odour), oral 100 mg 1,8-cineole, values given with (<x) are approximations
  Absolute concentration in human milk: 0.19 µg/kg
[3]; [12]
  Absolute concentration in human milk: 9.63 µg/kg
[3]; sample F (no odour), parent ingested two capsules, values given with (<x) are approximations
  Absolute concentration in human milk: 0.59 µg/kg
[3]; sample F (no odour), two capsules
  Estimated maximum level in human milk (concentration calculated with the last calibration point, in parentheses): < 2.40 µg/kg
[3]; [13]
  Absolute concentration in human milk: 21.24 µg/kg
[3]; [14]
  Absolute concentration in human milk: 37.69 µg/kg

## CC1(C)OC2(C)CCC1C1OC12 (stereo not drawn) [a2,3-epoxy-1,8-cineole, α2,3-epoxy-1,8-cineole]
[2]
  Presence in human urine: could not be found
[3]; [5]
  Absolute concentration in human milk: 2.48 µg/kg
[3]; [6]
  Absolute concentration in human milk: 7.65 µg/kg
[3]; sample B-2b (odour yes)
  Estimated maximum level in human milk (concentration calculated with the last calibration point, in parentheses): < 2.45 µg/kg
[3]; [8]
  Absolute concentration in human milk: 2.18 µg/kg
[3]; [9]
  Absolute concentration in human milk: 0.66 µg/kg
[3]; [10]
  Absolute concentration in human milk: 1.35 µg/kg
[3]; [11]
  Absolute concentration in human milk: 4.13 µg/kg
[3]; [12]
  Absolute concentration in human milk: 4.65 µg/kg
[3]; [13]
  Absolute concentration in human milk: 4.52 µg/kg
[3]; [14]
  Absolute concentration in human milk: 6.82 µg/kg

## CC12CCC(CC1)C(C)(CO)O2 (stereo not shown) [9-hydroxy-1,8-cineole]
[1]; one of the three samples B-2a
  Percentage E1: about 80%
[1]; the two other samples of B-2a
  Percentage E1: about 50%
[4]
  Concentration in plasma: 5.61 ng/mL
[3]; sample A-1b (odour yes)
  Estimated maximum level in human milk (concentration calculated with the last calibration point, in parentheses): < 1.08 µg/kg
[3]; [5]
  Absolute concentration in human milk: 0.46 µg/kg
[3]; sample B-1 (odour yes)
  Estimated maximum level in human milk (concentration calculated with the last calibration point, in parentheses): < 1.57 µg/kg
[3]; [6]
  Absolute concentration in human milk: 0.87 µg/kg
[3]; [7]
  Absolute concentration in human milk: 0.18 µg/kg
[3]; [8]
  Absolute concentration in human milk: 15.52 µg/kg
[3]; [9]
  Absolute concentration in human milk: 0.15 µg/kg
[3]; sample D-2 (odour yes)
  Estimated maximum level in human milk (concentration calculated with the last calibration point, in parentheses): < 1.82 µg/kg
[3]; [11]
  Absolute concentration in human milk: 0.46 µg/kg
[3]; [12]
  Absolute concentration in human milk: 16.95 µg/kg
[3]; sample G (odour yes)
  Estimated maximum level in human milk (concentration calculated with the last calibration point, in parentheses): < 3.33 µg/kg
[3]; [13]
  Absolute concentration in human milk: 0.73 µg/kg
[3]; sample H (odour yes)
  Estimated maximum level in human milk (concentration calculated with the last calibration point, in parentheses): < 1.86 µg/kg
[3]; [14]
  Absolute concentration in human milk: 1.83 µg/kg
